US7749982B2, “Complex containing mequitazine, a cyclodextrin and an interaction agent” (Pierre Fabre Medicament, priority 2004, dated 2010)

What was measured:
[1] = Mequitazine solubilization test (2 g/l in water, HPLC assay); type: physicochemical
Description: In the sense of the present invention, “rate of solubilization” means the percentage of solubilized mequitazine after stirring a mixture of water and mequitazine for 15 minutes at 37° C. A mixture of 2 g/l of mequitazine in water is usually used to measure this rate. This solubilization can be measured by a solubilization test as indicated below.
The mequitazine content in the dissolution solutions is measured by HPLC:
In a 100 ml Erlenmeyer flask, place a test sample equivalent to 100 mg of mequitazine. Add 50 ml of ultrapure water. […] Place under magnetic stirring at 400 rpm in a water bath at 37° C.±2° C. Remove a 2 ml sample under magnetic stirring at 15 minutes. Filter the sample on a 0.45 μm Gelman GHP Acrodisc polypropylene filter. The solution must be limpid. Dilute the sample to 1/200 in a phase: water/acetonitrile (50/50).
Deduce concentration X in μg/ml by following the regression line of the controls.
Calculate the concentration in μg/ml of solubilized mequitazine by multiplying by the inverse of the dilution made (i.e., 200).
The rate of solubility of mequitazine is calculated by dividing the concentration of solubilized mequitazine by the total concentration of mequitazine in the starting solution. […]
The solubility and the rates of solubilization of mequitazine only or mequitazine in physical mixtures are measured as indicated above in the “mequitazine solubilization test”. […]

[2] = Bioavailability of mequitazine administered by oral route; conditions: in vivo
From the text: As for many pharmaceutically active ingredients, the absorption of mequitazine administered by oral route takes place in the intestine. […] A very small portion of the mequitazine ingested is in solubilized form, and thus it is absorbed with difficulty through the intestinal barrier.

c1ccc2c(c1)Sc1ccccc1N2CC1CN2CCC1CC2 (stereo not drawn) [mequitazine]
solubility (in words) ([1]; acid pH range from 2 to 6): high solubility
solubility (in words) ([1]; pH 9): very low solubility
bioavailability [2]: ~0.3%
